Organism: Rattus norvegicus
Assay: DrugMatrix - Regimen: Daily Repeat
Format: toxicity, organism-based, Sprague-Dawley
Design: regimen Daily Repeat, gender Male, age 6-8 weeks
Details: in vivo, po, 0 mg/kg, route oral GAVAGE, dose level Control, […]; for ALANINE AMINOTRANSFERASE / ALBUMIN / ALKALINE PHOSPHATASE / ASPARTATE AMINOTRANSFERASE / BLOOD UREA NITROGEN / CARBON DIOXIDE / CHLORIDE / CHOLESTEROL / CREATINE PHOSPHOKINASE / CREATININE / GLUCOSE / LACTATE DEHYDROGENASE / LIPASE / POTASSIUM / SODIUM / TOTAL BILIRUBIN / TOTAL PROTEIN / URIC ACID: tissue Plasma
[1] = 120 h, tissue Blood, time 5 day

CCc1ccc(CCOc2ccc(CC3SC(=O)NC3=O)cc2)nc1 (stereo not drawn) [PIOGLITAZONE]
ABSOLUTE BASOPHIL (72 h, tissue Blood, time 3 day): 0 CELLS/uL
ABSOLUTE EOSINOPHIL (72 h, tissue Blood, time 3 day): 22.83 CELLS/uL
ABSOLUTE LYMPHOCYTE (72 h, tissue Blood, time 3 day): 11213.33 CELLS/uL
ABSOLUTE MONOCYTE (72 h, tissue Blood, time 3 day): 169.83 CELLS/uL
ABSOLUTE SEGMENTED NEUTROPHIL (72 h, tissue Blood, time 3 day): 960.67 CELLS/uL
BASOPHIL (72 h, tissue Blood, time 3 day): 0%
EOSINOPHIL (72 h, tissue Blood, time 3 day): 0.17%
ERYTHROCYTE COUNT (72 h, tissue Blood, time 3 day): 5.34 x10E6/uL
HEMATOCRIT (72 h, tissue Blood, time 3 day): 33.62%
HEMOGLOBIN (72 h, tissue Blood, time 3 day): 13.17 G/DL
LEUKOCYTE COUNT (72 h, tissue Blood, time 3 day): 12.37 x10E3/uL
LYMPHOCYTE (72 h, tissue Blood, time 3 day): 90.33%
MEAN CORPUSCULAR HEMOGLOBIN (72 h, tissue Blood, time 3 day): 24.65 pg
MEAN CORPUSCULAR HEMOGLOBIN CONCENTRATION (72 h, tissue Blood, time 3 day): 39.18 G/DL
MEAN CORPUSCULAR VOLUME (72 h, tissue Blood, time 3 day): 62.95 fL
MONOCYTE (72 h, tissue Blood, time 3 day): 1.5%
NEUTROPHIL (72 h, tissue Blood, time 3 day): 8%
NUCLEATED RED BLOOD CELLS (72 h, tissue Blood, time 3 day): 0 /100WBC
ALANINE AMINOTRANSFERASE (72 h, time 3 day): 56.67 u/L
ALBUMIN (72 h, time 3 day): 4.55 G/DL
ALKALINE PHOSPHATASE (72 h, time 3 day): 305.17 u/L
ASPARTATE AMINOTRANSFERASE (72 h, time 3 day): 96.5 u/L
BLOOD UREA NITROGEN (72 h, time 3 day): 13.5 mg/dL
CARBON DIOXIDE (72 h, time 3 day): 31 mmol/L
CHLORIDE (72 h, time 3 day): 101.67 MEQ/L
CHOLESTEROL (72 h, time 3 day): 75.83 mg/dL
CREATINE PHOSPHOKINASE (72 h, time 3 day): 345.67 u/L
CREATININE (72 h, time 3 day): 0.28 mg/dL
GLUCOSE (72 h, time 3 day): 142.5 mg/dL
LACTATE DEHYDROGENASE (72 h, time 3 day): 136.67 u/L
LIPASE (72 h, time 3 day): 10.17 u/L
POTASSIUM (72 h, time 3 day): 5.41 MEQ/L
SODIUM (72 h, time 3 day): 146.7 MEQ/L
TOTAL BILIRUBIN (72 h, time 3 day): 0.13 mg/dL
TOTAL PROTEIN (72 h, time 3 day): 6.65 G/DL
URIC ACID (72 h, time 3 day): 0.77 mg/dL
ABSOLUTE BASOPHIL [1]: 0 CELLS/uL
ABSOLUTE EOSINOPHIL [1]: 26.33 CELLS/uL
ABSOLUTE LYMPHOCYTE [1]: 10004.33 CELLS/uL
ABSOLUTE MONOCYTE [1]: 141.33 CELLS/uL
ABSOLUTE SEGMENTED NEUTROPHIL [1]: 1161.33 CELLS/uL
BASOPHIL [1]: 0%
EOSINOPHIL [1]: 0.33%
ERYTHROCYTE COUNT [1]: 5.5 x10E6/uL
HEMATOCRIT [1]: 34.8%
HEMOGLOBIN [1]: 13.17 G/DL
LEUKOCYTE COUNT [1]: 11.33 x10E3/uL
LYMPHOCYTE [1]: 87.83%
MEAN CORPUSCULAR HEMOGLOBIN [1]: 23.95 pg
MEAN CORPUSCULAR HEMOGLOBIN CONCENTRATION [1]: 37.83 G/DL
MEAN CORPUSCULAR VOLUME [1]: 63.28 fL
MONOCYTE [1]: 1.17%
NEUTROPHIL [1]: 10.67%
NUCLEATED RED BLOOD CELLS [1]: 0 /100WBC
PLATELET COUNT [1]: 1035.33 x10E3/uL
ALANINE AMINOTRANSFERASE (120 h, time 5 day): 36 u/L
ALBUMIN (120 h, time 5 day): 4.63 G/DL
ALKALINE PHOSPHATASE (120 h, time 5 day): 266.33 u/L
ASPARTATE AMINOTRANSFERASE (120 h, time 5 day): 71.67 u/L
BLOOD UREA NITROGEN (120 h, time 5 day): 11.33 mg/dL
CARBON DIOXIDE (120 h, time 5 day): 30.17 mmol/L
CHLORIDE (120 h, time 5 day): 100.83 MEQ/L
CHOLESTEROL (120 h, time 5 day): 70.33 mg/dL
CREATINE PHOSPHOKINASE (120 h, time 5 day): 226.17 u/L
CREATININE (120 h, time 5 day): 0.27 mg/dL
GLUCOSE (120 h, time 5 day): 147.83 mg/dL
LACTATE DEHYDROGENASE (120 h, time 5 day): 111.67 u/L
LIPASE (120 h, time 5 day): 8 u/L
POTASSIUM (120 h, time 5 day): 5.14 MEQ/L
SODIUM (120 h, time 5 day): 145.48 MEQ/L
TOTAL BILIRUBIN (120 h, time 5 day): 0.1 mg/dL
TOTAL PROTEIN (120 h, time 5 day): 6.53 G/DL
URIC ACID (120 h, time 5 day): 0.52 mg/dL
